SMILES strings stand for the structures.

T1 sequence (O00255 whole entry): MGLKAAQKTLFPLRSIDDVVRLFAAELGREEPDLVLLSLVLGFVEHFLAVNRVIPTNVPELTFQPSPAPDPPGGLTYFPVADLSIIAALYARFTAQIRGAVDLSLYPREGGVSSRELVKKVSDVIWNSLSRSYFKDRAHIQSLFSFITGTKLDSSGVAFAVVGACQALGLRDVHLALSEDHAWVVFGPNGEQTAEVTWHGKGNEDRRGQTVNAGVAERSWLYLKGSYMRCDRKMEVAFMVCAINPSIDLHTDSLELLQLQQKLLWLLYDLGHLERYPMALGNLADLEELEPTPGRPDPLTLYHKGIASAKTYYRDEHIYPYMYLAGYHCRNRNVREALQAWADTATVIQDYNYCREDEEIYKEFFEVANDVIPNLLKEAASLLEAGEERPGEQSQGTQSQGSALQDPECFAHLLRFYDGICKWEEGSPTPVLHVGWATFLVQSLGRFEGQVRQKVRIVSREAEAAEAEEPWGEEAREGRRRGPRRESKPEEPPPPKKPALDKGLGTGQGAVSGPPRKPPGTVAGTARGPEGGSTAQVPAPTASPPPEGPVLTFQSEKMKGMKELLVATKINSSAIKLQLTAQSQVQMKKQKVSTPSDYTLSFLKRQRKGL
T1 sequence (Q03164 1-2718 partner limits assumed): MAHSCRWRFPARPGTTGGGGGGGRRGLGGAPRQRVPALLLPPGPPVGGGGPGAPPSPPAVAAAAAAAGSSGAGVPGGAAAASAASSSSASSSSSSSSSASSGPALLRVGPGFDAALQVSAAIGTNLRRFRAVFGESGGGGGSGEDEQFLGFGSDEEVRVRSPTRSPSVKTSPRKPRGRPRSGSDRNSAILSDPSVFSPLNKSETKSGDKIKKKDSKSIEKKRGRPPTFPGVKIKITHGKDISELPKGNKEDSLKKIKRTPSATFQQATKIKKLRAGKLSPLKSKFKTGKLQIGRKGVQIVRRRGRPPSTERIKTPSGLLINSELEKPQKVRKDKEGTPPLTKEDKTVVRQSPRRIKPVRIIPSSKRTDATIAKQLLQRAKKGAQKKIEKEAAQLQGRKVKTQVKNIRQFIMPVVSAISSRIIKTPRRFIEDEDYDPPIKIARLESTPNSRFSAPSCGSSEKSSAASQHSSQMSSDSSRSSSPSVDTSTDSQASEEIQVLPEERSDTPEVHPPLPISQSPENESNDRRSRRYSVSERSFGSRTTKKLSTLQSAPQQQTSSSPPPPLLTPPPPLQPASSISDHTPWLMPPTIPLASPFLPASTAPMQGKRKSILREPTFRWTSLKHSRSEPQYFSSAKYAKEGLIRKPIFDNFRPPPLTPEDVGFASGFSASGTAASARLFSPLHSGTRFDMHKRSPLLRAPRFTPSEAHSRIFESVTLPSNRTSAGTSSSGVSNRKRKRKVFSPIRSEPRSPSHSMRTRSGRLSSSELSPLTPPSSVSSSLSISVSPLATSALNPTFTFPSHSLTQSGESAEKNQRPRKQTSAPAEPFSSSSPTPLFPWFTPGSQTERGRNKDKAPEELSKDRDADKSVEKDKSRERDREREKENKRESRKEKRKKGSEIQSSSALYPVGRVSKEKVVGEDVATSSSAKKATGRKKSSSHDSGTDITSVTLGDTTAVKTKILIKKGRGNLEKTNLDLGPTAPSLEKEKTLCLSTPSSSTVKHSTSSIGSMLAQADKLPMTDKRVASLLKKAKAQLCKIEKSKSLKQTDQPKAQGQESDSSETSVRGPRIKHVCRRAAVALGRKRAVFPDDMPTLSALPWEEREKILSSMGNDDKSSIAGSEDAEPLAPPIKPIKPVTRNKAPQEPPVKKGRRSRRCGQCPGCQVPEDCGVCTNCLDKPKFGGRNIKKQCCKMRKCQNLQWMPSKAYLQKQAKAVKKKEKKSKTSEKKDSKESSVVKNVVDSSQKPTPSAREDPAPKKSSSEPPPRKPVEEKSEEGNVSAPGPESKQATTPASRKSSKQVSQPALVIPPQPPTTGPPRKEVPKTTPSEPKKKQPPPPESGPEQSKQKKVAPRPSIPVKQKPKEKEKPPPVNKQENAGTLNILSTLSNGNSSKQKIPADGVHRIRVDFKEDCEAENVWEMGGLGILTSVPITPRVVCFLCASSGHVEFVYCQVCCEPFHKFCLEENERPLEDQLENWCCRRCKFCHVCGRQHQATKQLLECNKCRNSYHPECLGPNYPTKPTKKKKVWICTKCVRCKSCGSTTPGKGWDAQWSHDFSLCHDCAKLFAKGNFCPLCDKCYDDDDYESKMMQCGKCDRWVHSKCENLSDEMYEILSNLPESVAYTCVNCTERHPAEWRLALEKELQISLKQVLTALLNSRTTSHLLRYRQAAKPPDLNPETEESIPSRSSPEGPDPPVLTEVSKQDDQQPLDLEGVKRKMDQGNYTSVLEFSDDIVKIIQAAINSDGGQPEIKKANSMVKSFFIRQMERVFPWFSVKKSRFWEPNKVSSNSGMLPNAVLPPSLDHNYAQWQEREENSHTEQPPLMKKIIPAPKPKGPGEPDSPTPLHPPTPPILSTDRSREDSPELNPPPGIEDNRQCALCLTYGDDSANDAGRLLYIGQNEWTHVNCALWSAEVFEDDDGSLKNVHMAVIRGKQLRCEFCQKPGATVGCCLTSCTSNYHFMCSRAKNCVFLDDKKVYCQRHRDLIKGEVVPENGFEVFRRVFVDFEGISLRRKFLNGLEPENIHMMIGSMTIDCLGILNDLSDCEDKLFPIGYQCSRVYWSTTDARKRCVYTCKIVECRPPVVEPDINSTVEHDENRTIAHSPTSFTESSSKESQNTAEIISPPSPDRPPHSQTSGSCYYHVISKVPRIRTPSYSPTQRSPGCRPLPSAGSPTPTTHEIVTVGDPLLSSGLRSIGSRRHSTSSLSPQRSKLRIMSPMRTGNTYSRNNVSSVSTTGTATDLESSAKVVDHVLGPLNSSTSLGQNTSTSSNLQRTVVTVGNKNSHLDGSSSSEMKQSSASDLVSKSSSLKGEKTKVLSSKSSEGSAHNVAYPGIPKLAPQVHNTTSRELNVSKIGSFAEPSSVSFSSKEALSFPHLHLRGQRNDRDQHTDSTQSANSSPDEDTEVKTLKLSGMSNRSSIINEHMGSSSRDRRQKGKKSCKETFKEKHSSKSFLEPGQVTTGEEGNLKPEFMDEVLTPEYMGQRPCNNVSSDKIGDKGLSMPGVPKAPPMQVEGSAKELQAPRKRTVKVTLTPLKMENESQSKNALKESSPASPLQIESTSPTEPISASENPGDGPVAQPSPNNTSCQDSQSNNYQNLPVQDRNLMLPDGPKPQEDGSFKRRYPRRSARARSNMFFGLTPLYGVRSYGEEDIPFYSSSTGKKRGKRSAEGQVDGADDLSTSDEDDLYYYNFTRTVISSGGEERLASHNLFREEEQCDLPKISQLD
T1 sequence (Q03164 2719-3969 partner limits assumed): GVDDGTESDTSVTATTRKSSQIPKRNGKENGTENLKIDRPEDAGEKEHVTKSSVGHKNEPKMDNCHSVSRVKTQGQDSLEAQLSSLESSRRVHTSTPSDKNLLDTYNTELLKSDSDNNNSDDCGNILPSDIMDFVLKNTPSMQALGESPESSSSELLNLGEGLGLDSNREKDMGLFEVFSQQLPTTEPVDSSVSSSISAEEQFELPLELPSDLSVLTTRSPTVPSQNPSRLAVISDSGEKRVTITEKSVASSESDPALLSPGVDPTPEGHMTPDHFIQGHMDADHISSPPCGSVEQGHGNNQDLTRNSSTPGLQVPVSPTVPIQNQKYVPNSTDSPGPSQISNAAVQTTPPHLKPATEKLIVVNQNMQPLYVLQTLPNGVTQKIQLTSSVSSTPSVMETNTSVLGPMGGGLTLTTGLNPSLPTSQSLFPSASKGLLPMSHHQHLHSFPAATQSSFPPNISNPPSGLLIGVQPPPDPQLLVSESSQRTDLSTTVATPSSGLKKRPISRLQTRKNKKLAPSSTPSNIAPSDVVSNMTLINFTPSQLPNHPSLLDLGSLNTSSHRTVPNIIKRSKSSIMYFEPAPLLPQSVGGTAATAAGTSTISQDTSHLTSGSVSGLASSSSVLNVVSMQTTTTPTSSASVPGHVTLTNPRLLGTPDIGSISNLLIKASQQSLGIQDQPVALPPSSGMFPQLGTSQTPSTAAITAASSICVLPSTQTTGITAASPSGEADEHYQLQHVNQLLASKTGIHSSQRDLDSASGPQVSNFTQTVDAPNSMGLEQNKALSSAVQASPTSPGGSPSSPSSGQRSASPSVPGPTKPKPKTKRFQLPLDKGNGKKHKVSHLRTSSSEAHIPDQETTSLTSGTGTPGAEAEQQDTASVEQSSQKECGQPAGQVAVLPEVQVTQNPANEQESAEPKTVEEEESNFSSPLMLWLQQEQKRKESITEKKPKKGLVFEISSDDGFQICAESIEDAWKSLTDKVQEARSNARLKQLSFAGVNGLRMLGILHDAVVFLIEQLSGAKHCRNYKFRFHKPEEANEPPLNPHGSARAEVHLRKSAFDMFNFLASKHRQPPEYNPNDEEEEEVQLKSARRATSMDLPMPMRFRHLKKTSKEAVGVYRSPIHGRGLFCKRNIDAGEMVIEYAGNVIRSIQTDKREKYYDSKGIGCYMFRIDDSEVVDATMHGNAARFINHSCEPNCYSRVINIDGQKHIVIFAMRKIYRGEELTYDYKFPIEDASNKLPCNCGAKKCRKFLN

The first test concerns the target T1, Menin/Histone-lysine N-methyltransferase MLL (Homo sapiens, UniProt O00255). Put plainly: Inhibition of menin-MLL1 (unknown origin) protein-protein interaction by fluorescence polarization assay. (Polarisation of emitted light reports the rotation of a fluorescent probe.)
For orientation: IC50 means the concentration that gives 50% inhibition. With `FC(F)(F)Cc1cc2c(N3CCC4(CN(Cc5ccccc5)C4)C3)ncnc2s1`, it took 56 nM to reach half-maximal inhibition (IC50).

For the compound `CC(C)[C@H](C1CNC1)N1CC2(CCN(c3ncnc4sc(CC(F)(F)F)cc34)C2)C1`, it took 21 nM to reach half-maximal inhibition (IC50).

With `Cn1cc2c(n1)CCCC2N1CC2(CCN(c3ncnc4sc(CC(F)(F)F)cc34)C2)C1` (centres undefined), the IC50 stood at 120 nM.

In turn, `CC(C)[C@@H](C1CNC1)N1CC2(CCN(c3ncnc4sc(CC(F)(F)F)cc34)C2)C1` registered an IC50 of 110 nM. The IC50 values of the last two compounds are within 1.5-fold of each other.

For `FC(F)(F)Cc1cc2c(N3CCCC4(CCN(Cc5ccccc5)C4)C3)ncnc2s1` (centres undefined), the IC50 amounted to 140 nM.

`O=C([C@@H]1CC2(CC2)CN1)N1CC2(CCN(c3ncnc4sc(CC(F)(F)F)cc34)C2)C1` returned an IC50 of 92 nM.

Another test concerns MV4-11. Put plainly: Antiproliferative activity against human MV411 cell spheroids. The format is functional, cell-based.
The compound `FC(F)(F)Cc1cc2c(N3CCC4(CN(Cc5ccccc5)C4)C3)ncnc2s1` showed an IC50 of 3700 nM.

Consider `CC(C)[C@H](C1CNC1)N1CC2(CCN(c3ncnc4sc(CC(F)(F)F)cc34)C2)C1`, for which 80 nM corresponded to half-maximal inhibition (IC50).

`Cn1cc2c(n1)CCCC2N1CC2(CCN(c3ncnc4sc(CC(F)(F)F)cc34)C2)C1` (centres undefined) gave an IC50 of 2100 nM.

The compound `CC(C)[C@@H](C1CNC1)N1CC2(CCN(c3ncnc4sc(CC(F)(F)F)cc34)C2)C1` had an IC50 of 3400 nM.

On to `FC(F)(F)Cc1cc2c(N3CCCC4(CCN(Cc5ccccc5)C4)C3)ncnc2s1` (centres undefined), for which it took 3900 nM to reach half-maximal inhibition (IC50). The IC50 values of the last two compounds are within 1.5-fold of each other.

In turn, `O=C([C@@H]1CC2(CC2)CN1)N1CC2(CCN(c3ncnc4sc(CC(F)(F)F)cc34)C2)C1` displayed an IC50 of 2600 nM.

The subject of the next test is MOLM-14. The experiment in a line: Antiproliferative activity against human MOLM14 cell spheroids. The class given is functional, cell-based.
On to `FC(F)(F)Cc1cc2c(N3CCC4(CN(Cc5ccccc5)C4)C3)ncnc2s1`, for which the IC50 was found to be 4600 nM.

For the compound `CC(C)[C@H](C1CNC1)N1CC2(CCN(c3ncnc4sc(CC(F)(F)F)cc34)C2)C1`, the IC50 was determined as 860 nM.

The compound `Cn1cc2c(n1)CCCC2N1CC2(CCN(c3ncnc4sc(CC(F)(F)F)cc34)C2)C1` (centres undefined) registered an IC50 of more than 15000 nM.

In the case of `CC(C)[C@@H](C1CNC1)N1CC2(CCN(c3ncnc4sc(CC(F)(F)F)cc34)C2)C1`, the IC50 came out at 10300 nM.

As to `FC(F)(F)Cc1cc2c(N3CCCC4(CCN(Cc5ccccc5)C4)C3)ncnc2s1` (centres undefined), it took 7700 nM to reach half-maximal inhibition (IC50). This IC50 and that of the compound before are within 1.5-fold of each other.

`O=C([C@@H]1CC2(CC2)CN1)N1CC2(CCN(c3ncnc4sc(CC(F)(F)F)cc34)C2)C1` displayed an IC50 of 11300 nM. This IC50 and that of the compound before are within 1.5-fold of each other.

The next test has as its target T1, Menin/Histone-lysine N-methyltransferase MLL. The experiment in a line: Inhibition of menin-MLL1 (unknown origin) protein-protein interaction by HTRF assay. On the technique in general: TR-FRET usually uses a lanthanide donor and a delayed reading to cut background.
Regarding `FC(F)(F)Cc1cc2c(N3CCC4(CN(Cc5ccccc5)C4)C3)ncnc2s1`, the IC50 worked out at 144 nM.

For `CC(C)[C@H](C1CNC1)N1CC2(CCN(c3ncnc4sc(CC(F)(F)F)cc34)C2)C1`, the IC50 was found to be 8 nM.

As for `Cn1cc2c(n1)CCCC2N1CC2(CCN(c3ncnc4sc(CC(F)(F)F)cc34)C2)C1` (centres undefined), the IC50 turned out to be 385 nM.

Compound `CC(C)[C@@H](C1CNC1)N1CC2(CCN(c3ncnc4sc(CC(F)(F)F)cc34)C2)C1` returned an IC50 of 190 nM.

Turning to `FC(F)(F)Cc1cc2c(N3CCCC4(CCN(Cc5ccccc5)C4)C3)ncnc2s1` (centres undefined), 227 nM corresponded to half-maximal inhibition (IC50).

In the case of `O=C([C@@H]1CC2(CC2)CN1)N1CC2(CCN(c3ncnc4sc(CC(F)(F)F)cc34)C2)C1`, the IC50 was found to be 102 nM. This IC50 lies about 2.2-fold lower than the previous one.

Source of the values: ChEMBL document CHEMBL4196228, “Potential Treatment of Acute Leukemia with Inhibitors of Menin/MLL Interaction” (ACS Med Chem Lett, 2018).
